In PMC9599548, “EP-Pred: A Machine Learning Tool for Bioprospecting Promiscuous Ester Hydrolases” (Biomolecules, 2022):

Assays:
Assay in all cases: 4-nitrophenol release at […] nm, initial rates
Type in all cases: biochemical
Details in all cases: 5 mM EPPS pH 8.0, 30 °C; ester 0–0.04 mM
WP_014900537.1 = test system: WP_014900537.1
WP_089515094.1 = test system: WP_089515094.1
WP_026140314.1 = test system: WP_026140314.1

## CCC(=O)Oc1ccc([N+](=O)[O-])cc1 [p-NP propionate]
WP_014900537.1
  Km: 16.9 ± 1.6 µM
WP_089515094.1
  Km: 23.5 ± 3.5 µM
WP_026140314.1
  Km: 14.5 ± 1.1 µM
